# Laboratory results from US20180290977A1, “KDM4 INHIBITORS” (Albert-Ludwigs-University Freiburg, priority 2017, published 2018).
# Where two headings read alike, the source gives them in different places.
# Columns and labels:
# KDM6B = KDM6B (Homo sapiens, UniProt O15054); assay: KDM demethylase inhibition (IC50); assay type: biochemical
# KDM4C = molecular target: T1, KDM4C (Homo sapiens, UniProt Q9H3R0); assay: KDM demethylase inhibition (IC50); assay type: biochemical
# T1 sequence (Q9H3R0 1-1056): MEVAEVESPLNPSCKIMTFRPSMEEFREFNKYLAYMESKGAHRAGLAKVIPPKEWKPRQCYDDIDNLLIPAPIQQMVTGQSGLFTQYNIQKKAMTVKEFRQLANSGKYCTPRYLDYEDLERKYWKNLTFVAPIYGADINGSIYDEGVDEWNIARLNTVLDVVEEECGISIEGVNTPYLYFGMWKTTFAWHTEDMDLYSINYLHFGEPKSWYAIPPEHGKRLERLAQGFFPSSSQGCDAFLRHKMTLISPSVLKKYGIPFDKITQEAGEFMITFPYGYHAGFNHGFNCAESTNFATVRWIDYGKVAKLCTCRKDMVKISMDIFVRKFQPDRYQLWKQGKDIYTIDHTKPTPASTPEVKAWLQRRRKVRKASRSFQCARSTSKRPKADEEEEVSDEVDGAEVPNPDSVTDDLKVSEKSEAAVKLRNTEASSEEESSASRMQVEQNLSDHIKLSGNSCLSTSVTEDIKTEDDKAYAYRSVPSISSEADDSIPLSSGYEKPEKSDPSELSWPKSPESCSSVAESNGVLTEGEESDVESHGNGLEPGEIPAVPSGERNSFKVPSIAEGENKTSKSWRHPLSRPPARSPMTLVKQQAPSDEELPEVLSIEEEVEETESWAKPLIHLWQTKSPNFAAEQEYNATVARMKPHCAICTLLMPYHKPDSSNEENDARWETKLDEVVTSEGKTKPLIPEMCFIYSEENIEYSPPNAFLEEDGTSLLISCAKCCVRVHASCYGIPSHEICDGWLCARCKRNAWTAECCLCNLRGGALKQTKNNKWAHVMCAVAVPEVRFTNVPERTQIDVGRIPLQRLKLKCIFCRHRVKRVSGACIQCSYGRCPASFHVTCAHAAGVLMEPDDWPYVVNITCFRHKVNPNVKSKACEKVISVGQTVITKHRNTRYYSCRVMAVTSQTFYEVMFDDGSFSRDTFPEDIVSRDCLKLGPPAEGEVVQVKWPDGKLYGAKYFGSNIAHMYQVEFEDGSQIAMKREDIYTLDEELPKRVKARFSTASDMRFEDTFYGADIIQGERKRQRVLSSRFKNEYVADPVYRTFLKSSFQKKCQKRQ
# Chain of KDM6B (O15054 whole entry): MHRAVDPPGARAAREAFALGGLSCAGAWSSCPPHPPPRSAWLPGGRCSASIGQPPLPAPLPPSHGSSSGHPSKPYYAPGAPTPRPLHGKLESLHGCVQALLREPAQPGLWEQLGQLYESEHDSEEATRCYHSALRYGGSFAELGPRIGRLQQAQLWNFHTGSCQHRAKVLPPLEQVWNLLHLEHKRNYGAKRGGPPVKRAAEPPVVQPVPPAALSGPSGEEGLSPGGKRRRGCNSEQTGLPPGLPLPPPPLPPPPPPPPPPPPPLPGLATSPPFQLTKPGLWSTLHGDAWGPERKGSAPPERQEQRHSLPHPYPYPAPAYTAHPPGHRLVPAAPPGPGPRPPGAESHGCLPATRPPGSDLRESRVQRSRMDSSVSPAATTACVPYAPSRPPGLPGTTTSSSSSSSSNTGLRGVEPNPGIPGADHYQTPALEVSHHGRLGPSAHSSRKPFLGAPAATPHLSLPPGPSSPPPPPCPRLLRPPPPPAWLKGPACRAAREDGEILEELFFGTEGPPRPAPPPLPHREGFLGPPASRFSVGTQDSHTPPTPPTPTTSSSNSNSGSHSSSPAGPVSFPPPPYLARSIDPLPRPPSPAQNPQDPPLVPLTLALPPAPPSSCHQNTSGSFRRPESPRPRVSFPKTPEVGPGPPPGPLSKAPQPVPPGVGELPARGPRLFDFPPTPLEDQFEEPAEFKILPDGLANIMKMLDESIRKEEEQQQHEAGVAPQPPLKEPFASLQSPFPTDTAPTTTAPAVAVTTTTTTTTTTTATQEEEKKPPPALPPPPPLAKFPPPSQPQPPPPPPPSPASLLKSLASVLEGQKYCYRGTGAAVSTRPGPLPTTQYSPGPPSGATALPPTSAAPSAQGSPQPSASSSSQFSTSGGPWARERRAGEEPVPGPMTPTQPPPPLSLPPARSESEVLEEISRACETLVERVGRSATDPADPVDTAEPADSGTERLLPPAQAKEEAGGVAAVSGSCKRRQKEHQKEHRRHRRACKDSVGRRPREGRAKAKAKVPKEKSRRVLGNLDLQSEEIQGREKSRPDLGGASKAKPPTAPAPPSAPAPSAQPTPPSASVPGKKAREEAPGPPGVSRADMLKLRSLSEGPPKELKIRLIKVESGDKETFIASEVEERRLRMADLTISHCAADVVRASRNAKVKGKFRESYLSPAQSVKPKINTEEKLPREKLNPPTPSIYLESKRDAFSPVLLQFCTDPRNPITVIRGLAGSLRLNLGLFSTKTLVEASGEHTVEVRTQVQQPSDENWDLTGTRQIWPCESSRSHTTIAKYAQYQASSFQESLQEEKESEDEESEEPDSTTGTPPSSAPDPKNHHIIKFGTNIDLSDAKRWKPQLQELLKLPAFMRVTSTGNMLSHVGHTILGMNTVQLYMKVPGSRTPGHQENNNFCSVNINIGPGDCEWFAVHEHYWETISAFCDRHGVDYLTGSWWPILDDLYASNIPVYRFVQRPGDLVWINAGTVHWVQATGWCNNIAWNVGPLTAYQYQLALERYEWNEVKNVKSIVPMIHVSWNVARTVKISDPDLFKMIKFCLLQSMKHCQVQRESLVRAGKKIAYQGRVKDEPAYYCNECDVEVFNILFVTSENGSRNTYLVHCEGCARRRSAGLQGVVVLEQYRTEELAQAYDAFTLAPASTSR
structure (smiles),measurement,setting,value
"CN(c1ccccc1)c1ccc2c(c1)CCC[C@H]2CNc1cnccc1C(=O)O [Compound I, 3-({[(1R)-6-[methyl(phenyl)amino]-1,2,3,4-tetrahydronaphthalen-1-yl]methyl}amino)pyridine-4-carboxylic Acid]",IC50,KDM6B,> 10000 nM
same,IC50,KDM4C; read-out: Compound I IC50,35 nM
same,IC50,"KDM4C; read-out: IC50, demethylase activity",< 105 nM
